In the supplement of paper PMC10307832:

Experiments:
Assay in all cases: relative viability (nuclei count vs DMSO), 5 days (fraction); higher = more cells survive
[1] = compound: Cc1cnc(CNC(=O)c2c(=O)c3ccc(N4CCCN(C)CC4)nc3n3c2sc2ccccc23)cn1 [CX-5461] + Nc1ncn([C@H]2C[C@H](O)[C@@H](CO)O2)c(=O)n1 [Decitabine] (partner 2 µM)
In short: (§1)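 The day after seeding in 1536-well plates, lung cancer cell lines were treated by pin tool with a single drug, or with a fixed anchor-drug dose together with five library-drug doses (not always all listed) in √10 steps. After 5 days, a combined fix-and-stain solution (final 0.05% Triton X-100, 1% formaldehyde, 1 ug/ml Hoechst) was added. Nuclei counted on 4× images gave relative viability as treated counts over vehicle counts, reported as the median of duplicate plates.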

[2] = compound: Cc1cnc(CNC(=O)c2c(=O)c3ccc(N4CCCN(C)CC4)nc3n3c2sc2ccccc23)cn1 [CX-5461] + CC(=O)c1c(C)c2cnc(Nc3ccc(N4CCNCC4)cn3)nc2n(C2CCCC2)c1=O [Palbociclib] (partner 0.5 µM)
In short: as §1

[3] = compound: Cc1cnc(CNC(=O)c2c(=O)c3ccc(N4CCCN(C)CC4)nc3n3c2sc2ccccc23)cn1 [CX-5461] + Cc1nc(Nc2ncc(C(=O)Nc3c(C)cccc3Cl)s2)cc(N2CCN(CCO)CC2)n1 [Dasatinib] (partner 0.075 µM)
In short: as §1

[4] = compound: O=C(Nc1cc(C(F)(F)F)cc(C(F)(F)F)c1)c1cc(Cl)ccc1O [IMD-0354] + Cc1nc(NC(=O)N2CCC[C@H]2C(N)=O)sc1-c1ccnc(C(C)(C)C(F)(F)F)c1 [Alpelisib] (partner 2 µM)
In short: as §1

For UMC-11, the relative viability ([1]; first compound 0.01 µM) was 0.611, the relative viability ([1]; first compound 0.03162 µM) was 0.464 and the relative viability ([1]; first compound 0.1 µM) was 0.497. For the same cell line, the relative viability ([1]; first compound 0.3162 µM) was 0.301, the relative viability ([1]; first compound 1 µM) was 0.36 and the relative viability ([2]; first compound 0.01 µM) was 0.36. It also gave a relative viability ([2]; first compound 0.03162 µM) of 0.319, a relative viability ([2]; first compound 0.1 µM) of 0.306 and a relative viability ([2]; first compound 0.3162 µM) of 0.294. The relative viability ([2]; first compound 1 µM) was 0.241, the relative viability ([3]; first compound 0.01 µM) was 0.446 and the relative viability ([3]; first compound 0.03162 µM) was 0.519. It also gave a relative viability ([3]; first compound 0.1 µM) of 0.364, a relative viability ([3]; first compound 0.3162 µM) of 0.39 and a relative viability ([3]; first compound 1 µM) of 0.246. The relative viability ([4]; first compound 0.04 µM) was 0.945, the relative viability ([4]; first compound 0.1265 µM) was 0.973 and the relative viability ([4]; first compound 0.4 µM) was 0.598. It also gave a relative viability ([4]; first compound 1.265 µM) of 0.235 and a relative viability ([4]; first compound 4 µM) of 0.281.
